From patent US9504671B2, “Pharmaceutical compositions of spiro-oxindole compound for topical administration and their use as therapeutic agents” (Xenon Pharmaceuticals Inc., priority 2010, dated 2016) come the findings set out here.

SMILES strings stand for the structures.

The nature of this series: systemic plasma concentration after topical or oral dosing in CCI rats (HPLC/MS/MS). The note with it: 8% (w/w) topical vs 25 mg/Kg oral, blood 10-15 minutes after efficacy time points, p<0.0001. The series is classed as in vivo, male Sprague Dawley rats. The procedure:
Blood samples were taken from the same animals immediately after withdrawal threshold measurements using the following procedure at approximately 10-15 minutes after their respective efficacy time points. The rats were bled by jugular vein puncture while under anaesthesia. The time at which each blood sample was drawn, relative to the time of dosing, was recorded. Each blood sample (˜150 μL) was collected into a heparin-coated, labelled microvette tube containing 10 μL of heparin (100 Units) and placed on ice immediately. The blood samples were centrifuged at 4° C. to separate the plasma. The plasma was transferred to labelled tubes and snap-frozen in liquid nitrogen for storage at −80° C. At the time of analysis, the plasma was thawed and extracted using solid phase extraction, and the plasma drug concentration was quantified by HPLC/MS/MS.

Take `O=C1N(Cc2ccc(C(F)(F)F)o2)c2ccccc2[C@]12COc1cc3c(cc12)OCO3` [COMPOUND A, (S)-1′-{[5-(trifluoromethyl)furan-2-yl]methyl}spiro[furo[2,3-f][1,3]benzodioxole-7,3′-indol]-2′(1′H)-one]: the “plasma level in topical dosage group lower than in oral dosage group (fold)” value is about 20 ×.
